2 molecules from ChEMBL document CHEMBL5303573, “Mapping human microbiome drug metabolism by gut bacteria and their genes” (Nature, 2019) can be followed below.

Each structure is given as a SMILES string.

One data set is described as follows: The drug is tested on Bifidobacterium longum subsp. Infantis strain: CCUG52486 for biotransformation. The drug concentrations were measured before and after a 12-h incubation by liquid-chromatography-coupled mass spectrometry (LC–MS). Conditions: 2 µM.
As for `CC(C)(C)NC(=O)[C@H]1CC[C@H]2[C@@H]3CC[C@H]4NC(=O)C=C[C@]4(C)[C@H]3CC[C@]12C` [FINASTERIDE], the “Bacterial Biotransformation” value was “Compound NOT metabolized”.

The next data set in a line: The drug is tested on Bifidobacterium ruminantium strain: fecal isolate for biotransformation. The drug concentrations were measured before and after a 12-h incubation by liquid-chromatography-coupled mass spectrometry (LC–MS). Conditions: 2 µM.
In the case of `COc1ccc2c3c1O[C@H]1C[C@@H](O)C=C[C@@]31CCN(C)C2` [GALANTAMINE], the “Bacterial Biotransformation” value is listed as “Compound NOT metabolized”.

Consider `CC(C)(C)NC(=O)[C@H]1CC[C@H]2[C@@H]3CC[C@H]4NC(=O)C=C[C@]4(C)[C@H]3CC[C@]12C` [FINASTERIDE], for which the “Bacterial Biotransformation” value was “Compound NOT metabolized”.

The nature of another data set: The drug is tested on Collinsella aerofaciens strain: ATCC25986 for biotransformation. The drug concentrations were measured before and after a 12-h incubation by liquid-chromatography-coupled mass spectrometry (LC–MS). The conditions noted are these: 2 µM.
Regarding `COc1ccc2c3c1O[C@H]1C[C@@H](O)C=C[C@@]31CCN(C)C2` [GALANTAMINE], the “Bacterial Biotransformation” value is listed as “Compound NOT metabolized”.

Regarding `CC(C)(C)NC(=O)[C@H]1CC[C@H]2[C@@H]3CC[C@H]4NC(=O)C=C[C@]4(C)[C@H]3CC[C@]12C` [FINASTERIDE], the “Bacterial Biotransformation” value is listed as “Compound NOT metabolized”.

The next data set is described as follows: The drug is tested on Bacteroides dorei strain: DSM17855 for biotransformation. The drug concentrations were measured before and after a 12-h incubation by liquid-chromatography-coupled mass spectrometry (LC–MS). Conditions: phocaeicola dorei, 2 µM.
As for `COc1ccc2c3c1O[C@H]1C[C@@H](O)C=C[C@@]31CCN(C)C2` [GALANTAMINE], the “Bacterial Biotransformation” value is “Compound NOT metabolized”.

Consider `CC(C)(C)NC(=O)[C@H]1CC[C@H]2[C@@H]3CC[C@H]4NC(=O)C=C[C@]4(C)[C@H]3CC[C@]12C` [FINASTERIDE], for which the “Bacterial Biotransformation” value is listed as “Compound metabolized”.

The next data set is described as follows: The drug is tested on Bacteroides finegoldii strain: DSM17565 for biotransformation. The drug concentrations were measured before and after a 12-h incubation by liquid-chromatography-coupled mass spectrometry (LC–MS). The conditions noted are these: 2 µM.
Take `CC(C)(C)NC(=O)[C@H]1CC[C@H]2[C@@H]3CC[C@H]4NC(=O)C=C[C@]4(C)[C@H]3CC[C@]12C` [FINASTERIDE]: the “Bacterial Biotransformation” value was “Compound metabolized”.

Another data set is described as follows: The drug is tested on Bacteroides fragilis strain: HMW615 for biotransformation. The drug concentrations were measured before and after a 12-h incubation by liquid-chromatography-coupled mass spectrometry (LC–MS). Conditions: 2 µM.
Turning to `COc1ccc2c3c1O[C@H]1C[C@@H](O)C=C[C@@]31CCN(C)C2` [GALANTAMINE], the “Bacterial Biotransformation” value is on record as “Compound metabolized”.

For `CC(C)(C)NC(=O)[C@H]1CC[C@H]2[C@@H]3CC[C@H]4NC(=O)C=C[C@]4(C)[C@H]3CC[C@]12C` [FINASTERIDE], the “Bacterial Biotransformation” value is given as “Compound metabolized”.

The nature of another data set: The drug is tested on Bacteroides sp. WH2 strain: WH2 for biotransformation. The drug concentrations were measured before and after a 12-h incubation by liquid-chromatography-coupled mass spectrometry (LC–MS). Conditions: bacteroides sp. wh2, 12 h, 2 µM.
In the case of `COc1ccc2c3c1O[C@H]1C[C@@H](O)C=C[C@@]31CCN(C)C2` [GALANTAMINE], the “Bacterial Biotransformation” value is given as “Compound metabolized”.

Take `CC(C)(C)NC(=O)[C@H]1CC[C@H]2[C@@H]3CC[C@H]4NC(=O)C=C[C@]4(C)[C@H]3CC[C@]12C` [FINASTERIDE]: the “Bacterial Biotransformation” value is on record as “Compound NOT metabolized”.

The next data set in a line: The drug is tested on Bacteroides xylanisolvens strain: DSM18836 for biotransformation. The drug concentrations were measured before and after a 12-h incubation by liquid-chromatography-coupled mass spectrometry (LC–MS). Conditions: 2 µM.
`COc1ccc2c3c1O[C@H]1C[C@@H](O)C=C[C@@]31CCN(C)C2` [GALANTAMINE]: the “Bacterial Biotransformation” value is “Compound metabolized”.

For the molecule `CC(C)(C)NC(=O)[C@H]1CC[C@H]2[C@@H]3CC[C@H]4NC(=O)C=C[C@]4(C)[C@H]3CC[C@]12C` [FINASTERIDE], the “Bacterial Biotransformation” value is given as “Compound metabolized”.

Another data set can be described thus: The drug is tested on Anaerotruncus colihominis strain: DSM17241 for biotransformation. The drug concentrations were measured before and after a 12-h incubation by liquid-chromatography-coupled mass spectrometry (LC–MS). Conditions: 2 µM.
Regarding `COc1ccc2c3c1O[C@H]1C[C@@H](O)C=C[C@@]31CCN(C)C2` [GALANTAMINE], the “Bacterial Biotransformation” value is reported as “Compound NOT metabolized”.

On to `CC(C)(C)NC(=O)[C@H]1CC[C@H]2[C@@H]3CC[C@H]4NC(=O)C=C[C@]4(C)[C@H]3CC[C@]12C` [FINASTERIDE], for which the “Bacterial Biotransformation” value is on record as “Compound NOT metabolized”.

Another data set is described as follows: The drug is tested on Eubacterium hallii strain: DSM3353 for biotransformation. The drug concentrations were measured before and after a 12-h incubation by liquid-chromatography-coupled mass spectrometry (LC–MS). The conditions noted are these: anaerobutyricum hallii, 2 µM.
As to `COc1ccc2c3c1O[C@H]1C[C@@H](O)C=C[C@@]31CCN(C)C2` [GALANTAMINE], the “Bacterial Biotransformation” value was “Compound NOT metabolized”.

With `CC(C)(C)NC(=O)[C@H]1CC[C@H]2[C@@H]3CC[C@H]4NC(=O)C=C[C@]4(C)[C@H]3CC[C@]12C` [FINASTERIDE], the “Bacterial Biotransformation” value is “Compound NOT metabolized”.

A short description of the next data set: The drug is tested on Eubacterium ventriosum strain: ATCC27560 for biotransformation. The drug concentrations were measured before and after a 12-h incubation by liquid-chromatography-coupled mass spectrometry (LC–MS). More on the design: dose 2 uM, timepoint 0 vs 12 hours. Conditions: 2 µM. Type of data set: ADME.
For `COc1ccc2c3c1O[C@H]1C[C@@H](O)C=C[C@@]31CCN(C)C2` [GALANTAMINE], the “Bacterial Biotransformation” value is given as “Compound NOT metabolized”.

For the molecule `CC(C)(C)NC(=O)[C@H]1CC[C@H]2[C@@H]3CC[C@H]4NC(=O)C=C[C@]4(C)[C@H]3CC[C@]12C` [FINASTERIDE], the “Bacterial Biotransformation” value is given as “Compound NOT metabolized”.

A further data set can be described thus: The drug is tested on Ruminococcus gnavus strain: ATCC29149 for biotransformation. The drug concentrations were measured before and after a 12-h incubation by liquid-chromatography-coupled mass spectrometry (LC–MS). Conditions: mediterraneibacter gnavus, 2 µM.
Turning to `COc1ccc2c3c1O[C@H]1C[C@@H](O)C=C[C@@]31CCN(C)C2` [GALANTAMINE], the “Bacterial Biotransformation” value is listed as “Compound NOT metabolized”.

Consider `CC(C)(C)NC(=O)[C@H]1CC[C@H]2[C@@H]3CC[C@H]4NC(=O)C=C[C@]4(C)[C@H]3CC[C@]12C` [FINASTERIDE], for which the “Bacterial Biotransformation” value was “Compound NOT metabolized”.

The nature of the next data set: The drug is tested on Providencia stuartii strain: ATCC25827 for biotransformation. The drug concentrations were measured before and after a 12-h incubation by liquid-chromatography-coupled mass spectrometry (LC–MS). Conditions: 2 µM.
In the case of `CC(C)(C)NC(=O)[C@H]1CC[C@H]2[C@@H]3CC[C@H]4NC(=O)C=C[C@]4(C)[C@H]3CC[C@]12C` [FINASTERIDE], the “Bacterial Biotransformation” value was “Compound NOT metabolized”.

For another data set the following is noted: bacteroides fragilis, 12 h, 2 µM.
Description: The drug is tested on Bacteroides fragilis strain: NCTC 9343 for biotransformation. The drug concentrations were measured before and after a 12-h incubation by liquid-chromatography-coupled mass spectrometry (LC–MS)
Regarding `CC(C)(C)NC(=O)[C@H]1CC[C@H]2[C@@H]3CC[C@H]4NC(=O)C=C[C@]4(C)[C@H]3CC[C@]12C` [FINASTERIDE], the “Bacterial Biotransformation” value is “Compound metabolized”.

The conditions of another data set: bacteroides intestinalis, 12 h, 2 µM.
Description: The drug is tested on Bacteroides intestinalis strain: DSM17393 for biotransformation. The drug concentrations were measured before and after a 12-h incubation by liquid-chromatography-coupled mass spectrometry (LC–MS)
`COc1ccc2c3c1O[C@H]1C[C@@H](O)C=C[C@@]31CCN(C)C2` [GALANTAMINE]: the “Bacterial Biotransformation” value is “Compound NOT metabolized”.

Regarding `CC(C)(C)NC(=O)[C@H]1CC[C@H]2[C@@H]3CC[C@H]4NC(=O)C=C[C@]4(C)[C@H]3CC[C@]12C` [FINASTERIDE], the “Bacterial Biotransformation” value is on record as “Compound NOT metabolized”.

For another data set the following is noted: bacteroides thetaiotaomicron, 12 h, 2 µM.
Description: The drug is tested on Bacteroides thetaiotaomicron strain: 3731 for biotransformation. The drug concentrations were measured before and after a 12-h incubation by liquid-chromatography-coupled mass spectrometry (LC–MS)
Turning to `COc1ccc2c3c1O[C@H]1C[C@@H](O)C=C[C@@]31CCN(C)C2` [GALANTAMINE], the “Bacterial Biotransformation” value is “Compound metabolized”.

On to `CC(C)(C)NC(=O)[C@H]1CC[C@H]2[C@@H]3CC[C@H]4NC(=O)C=C[C@]4(C)[C@H]3CC[C@]12C` [FINASTERIDE], for which the “Bacterial Biotransformation” value is recorded as “Compound NOT metabolized”.

The conditions of another data set: limosilactobacillus reuteri cf48-3a, 12 h, 2 µM.
Description: The drug is tested on Lactobacillus reuteri CF48-3A strain: BEI HM-102 for biotransformation. The drug concentrations were measured before and after a 12-h incubation by liquid-chromatography-coupled mass spectrometry (LC–MS)
Regarding `CC(C)(C)NC(=O)[C@H]1CC[C@H]2[C@@H]3CC[C@H]4NC(=O)C=C[C@]4(C)[C@H]3CC[C@]12C` [FINASTERIDE], the “Bacterial Biotransformation” value is “Compound NOT metabolized”.

The conditions of another data set: roseburia intestinalis, 12 h, 2 µM.
Description: The drug is tested on Roseburia intestinalis strain: L1-82 for biotransformation. The drug concentrations were measured before and after a 12-h incubation by liquid-chromatography-coupled mass spectrometry (LC–MS)
Regarding `COc1ccc2c3c1O[C@H]1C[C@@H](O)C=C[C@@]31CCN(C)C2` [GALANTAMINE], the “Bacterial Biotransformation” value is “Compound NOT metabolized”.

The conditions of a further data set: akkermansia muciniphila, 12 h, 2 µM.
Description: The drug is tested on Akkermansia muciniphila strain: ATCC BAA-835 for biotransformation. The drug concentrations were measured before and after a 12-h incubation by liquid-chromatography-coupled mass spectrometry (LC–MS)
With `COc1ccc2c3c1O[C@H]1C[C@@H](O)C=C[C@@]31CCN(C)C2` [GALANTAMINE], the “Bacterial Biotransformation” value was “Compound NOT metabolized”.

With `CC(C)(C)NC(=O)[C@H]1CC[C@H]2[C@@H]3CC[C@H]4NC(=O)C=C[C@]4(C)[C@H]3CC[C@]12C` [FINASTERIDE], the “Bacterial Biotransformation” value was “Compound metabolized”.
